Results published in patent publication US8143374B2, “Polypeptide derivatives of parathyroid hormone (PTH)” (The General Hospital Corporation, priority 2006, dated 2012).
pIC50: −log10 of the molar value. Where no end group is shown, it is not given here.

Legend:
[1] = target: T1, endogenous PTHR in ROS 17/2.8 cells (Rattus norvegicus, UniProt P25961); test: Competition binding in intact ROS 17/2.8 cells with 125I-PTH(1-34) tracer; settings: 125I-[Nle8,21,Tyr34]rPTH(1-34)NH2 tracer
T1 construct: ROS 17/2.8 cells are rat osteosarcoma cells and express the endogenous PTHR; endogenous in cells; host or cells: ROS 17/2.8 rat osteosarcoma cells
T1 sequence (P25961 27-591): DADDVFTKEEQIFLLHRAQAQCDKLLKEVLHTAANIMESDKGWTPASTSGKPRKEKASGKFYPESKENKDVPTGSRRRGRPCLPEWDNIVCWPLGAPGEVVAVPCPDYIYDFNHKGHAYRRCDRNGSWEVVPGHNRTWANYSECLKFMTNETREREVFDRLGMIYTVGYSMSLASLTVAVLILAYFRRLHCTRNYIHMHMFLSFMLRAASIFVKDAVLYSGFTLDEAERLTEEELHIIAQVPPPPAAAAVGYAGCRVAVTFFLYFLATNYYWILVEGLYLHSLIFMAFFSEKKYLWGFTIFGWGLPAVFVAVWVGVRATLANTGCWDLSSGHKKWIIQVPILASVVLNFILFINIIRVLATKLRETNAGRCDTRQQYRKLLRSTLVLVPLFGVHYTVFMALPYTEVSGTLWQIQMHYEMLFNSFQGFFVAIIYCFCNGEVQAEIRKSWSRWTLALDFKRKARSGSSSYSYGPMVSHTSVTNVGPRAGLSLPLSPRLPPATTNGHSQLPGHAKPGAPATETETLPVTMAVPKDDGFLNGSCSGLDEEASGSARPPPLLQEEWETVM
Method: Cell Culture—Cells were cultured at 37° C. in a humidified atmosphere containing 5% CO2 in Dulbecco's modified Eagle's medium (DMEM), supplemented with 10% fetal bovine serum (HyClone, Logan Utah), 100 units/ml penicillin G, and 100 ug/ml streptomycin penicillin G/streptomycin (Invitrogen Corp. Carlsbad, Calif.). For binding and cAMP studies performed with the intact PTHR, the HKRK-B7 and ROS 17/2.8 cell lines were used. HKRK-B7 cells are derived from the porcine kidney cell line LLC-PK1 and express, via stable DNA transfection, the wild-type human PTHR at an approximate surface density of 950,000 PTH-binding sites per cell. […]
Receptor binding—Binding to the wild-type human PTHR in intact HKRK-B7 cells and ROS 17/2.8 cells was assessed using ^125I-PTH(1-34) as a tracer radioligand, as described (Shimizu, M., (2001) Endocrinology 142:3068-3074). […] The binding mixture was then removed by aspiration, the cells were rinsed three times with binding buffer, lysed in 1 M NaOH, and the entire lysate was counted for gamma-irradiation in a gamma counter. Binding to PTHR-delNt in COS-7 cell membranes was assessed in 96-well, vacuum filtration plates (Multiscreen-Durapore HV, […] membranes, Millipore Corp., Millford, Mass.) using ^125I-[Aib^1,3,M]PTH(1-15)NH2 as a tracer radioligand, as described (Dean, T., (2006) Mol Endocrinol 20:931-942). […]

ROS 17/2.8 cells = target: T2, ROS 17/2.8 cells (Rattus norvegicus, UniProt P25961); settings: position-20 substitutions in PTH(1-31)NH2; cited from earlier work
T2 construct: ROS 17/2.8 cells are rat osteosarcoma cells and express the endogenous PTHR; host or cells: ROS 17/2.8 cells
T2 sequence (P25961 27-591): T1 sequence (P25961 27-591)

Row | pIC50 [1] | Substance | reduction of cAMP-stimulating potency (ROS 17/2.8 cells)
1 | 5.24 | SVSEIQLMHNLGKHLNSMEEVEWLRKKLQDV [Arg^20→Glu] | –
2 | – | SVSEIQLMHNLGKHLNSMEKVEWLRKKLQDV-NH2 [Arg^20→Lys] | abolished activity altogether
